5 molecules from ChEMBL document CHEMBL1159386, “New bioactive coumarins from Kielmeyera albopunctata” (2003) can be followed below.

Holding throughout (assay type): functional
For one test, the system named is LNCaP. In words: Cytotoxicity against human LNCAP cells. As to conditions: read-out: ED50 (the source's name).
In a further test the test system is KB. In words: Cytotoxicity against human KB cells. As to conditions: read-out: ED50 (the source's name).
Test [1] has as its system Trypanosoma cruzi. Nature of the test: Antitrypanosomal activity against Trypanosoma cruzi trypomastigotes assessed as parasite lysis 500 ug/mL after 24 hrs.
The subject of another test is Lu1. Nature of the test: Cytotoxicity against human Lu1 cells. Conditions: read-out: ED50 (the source's name).
A further test has as its system Col2. In words: Cytotoxicity against human Col2 cells. As to conditions: read-out: ED50 (the source's name).
The test system of test [2] is Trypanosoma cruzi. In words: Antitrypanosomal activity against Trypanosoma cruzi trypomastigotes assessed as parasite lysis 125 ug/mL after 24 hrs.
In test [3] the test system is Trypanosoma cruzi. Nature of the test: Antitrypanosomal activity against Trypanosoma cruzi trypomastigotes assessed as parasite lysis 7.5 ug/mL after 24 hrs.

≈ marks a conversion by molar mass, not a printed value.

Take `CC(C)=CCc1c(O)c(C(=O)CC(C)CO)c2oc(=O)cc(-c3ccccc3)c2c1O` (stereo not given): the EC50 in the test with LNCaP was 15.9 µg/mL (≈ 37.6 µM); in the test on KB, 17.7 µg/mL (≈ 41.9 µM); in the test on Lu1, 19.8 µg/mL (≈ 46.9 µM); in the test on Col2, 17.4 µg/mL (≈ 41.2 µM). Besides, the Activity with Trypanosoma cruzi [1] was 98%.

Turning to `CCC(C)c1cc(=O)oc2c(C(=O)CC(C)CO)c(O)c(CC=C(C)C)c(O)c12` (stereo not given), the EC50 with LNCaP turned out to be 14 µg/mL (≈ 34.8 µM); with KB it was 15.8 µg/mL (≈ 39.3 µM); in the test with Lu1 it was 19.4 µg/mL (≈ 48.2 µM); with Col2 it was 13.1 µg/mL (≈ 32.5 µM). Moreover, the Activity is listed as 80% in the test with Trypanosoma cruzi [2] and 100% in the test on Trypanosoma cruzi [1].

For `CCC(C)c1cc(=O)oc2c(C(=O)CC(C)CO)c(O)c3c(c12)OC(C(C)(C)O)C3` (stereo not given), the EC50 in the test with LNCaP, with KB, in the test on Lu1 and with Col2 was over 20 µg/mL in each case.

For the molecule `Cc1c2ccncc2c(C)c2c1[nH]c1ccccc12` [ELLIPTECINE], the EC50 is 0.8 µg/mL (≈ 3.25 µM) in the test with LNCaP, 0.04 µg/mL (≈ 0.162 µM) in the test with KB, 0.02 µg/mL (≈ 0.0812 µM) in the test on Lu1 and 0.3 µg/mL (≈ 1.22 µM) with Col2.

With `CN(C)c1ccc(C(=C2C=CC(=[N+](C)C)C=C2)c2ccc(N(C)C)cc2)cc1.[Cl-]` [GENTIAN VIOLET], the Activity with Trypanosoma cruzi [3] was 50%.
